Measured values taken from PMC11111955, “Safety and efficacy evaluation of halicin as an effective drug for inhibiting intestinal infections” (Frontiers in Pharmacology, 2024).
In brackets after ≈: the same amount, converted by molar mass. Entries after “also recorded” stand apart in the source; their conditions may differ. Where two headings read alike, the source gives them in different places.

Key:
Salmonella (CVCC 3377) = test: Minimum inhibitory concentration (MIC); format: cell-based
[1] = test system: K. pneumoniae (ATCC 4352); test: Minimum inhibitory concentration (MIC); format: cell-based, Klebsiella pneumoniae
Experimental: (§1) The test strains were inoculated on the corresponding solid medium and incubated overnight at 37°C. A single colony was picked from the medium and inoculated into Luria Broth (LB), and then incubated overnight at 37°C with shaking at 220 rpm. The bacterial suspension was diluted to 0.5 McFarland turbidity with Mueller Hinton broth (MHB), and then dilute 100 times for later use. Halicin was added to the 96-well plate, and diluted it to concentrations of 128, 64, 32, 16, 8, 4, 2, 1, 0.5, 0.25, 0.125, and 0 μg/mL by gradient. The 96-well plate was incubated at 37°C for 16 h, followed by observing and recording the results. The MIC was determined as the concentration at which there was no visible colony growth was observed.

[2] = test system: R. anatipestifer (ATCC 11845); test: Minimum inhibitory concentration (MIC); format: cell-based, Riemerella anatipestifer
[3] = test system: A. baumannii (ATCC 19606); test: Minimum inhibitory concentration (MIC); format: cell-based, Acinetobacter baumannii
Experimental: as §1

S. aureus (ATCC 29213) [4] = test: Minimum inhibitory concentration (MIC); format: cell-based, Staphylococcus aureus
Experimental: as §1

E. faecalis (ATCC 29212) = test: Minimum inhibitory concentration (MIC); format: cell-based, Enterococcus faecalis
Experimental: as §1

MRSA (ATCC 43300) = test: Minimum inhibitory concentration (MIC); format: cell-based, Staphylococcus aureus
MRSA (BNCC 337371) = test: Minimum inhibitory concentration (MIC); format: cell-based, Staphylococcus aureus
[5] = test system: other bacteria (except Bacillus subtilis and Pseudomonas aeruginosa); test: MIC, panel of Table 1 as summarised in the text; format: cell-based; settings: bacteria of Table 1 except Bacillus subtilis and Pseudomonas aeruginosa
[6] = test system: Klebsiella pneumoniae (ATCC 4352); test: Growth kinetics curve; format: cell-based; settings: 1/2 × to 4 × MIC
S. aureus (ATCC 29213) [7] = test: Growth kinetics curve; format: cell-based, Staphylococcus aureus
TA100 = test: Ames test; format: cell-based, Salmonella typhimurium
Experimental: (§2) The experiments were performed in triplicate.

TA97a = test: Ames test; format: cell-based, Salmonella typhimurium
Experimental: as §2

TA98 = test: Ames test; format: cell-based, Salmonella typhimurium
Experimental: as §2

WP2uvApKM101 = test: Ames test; format: cell-based, Escherichia coli
Experimental: as §2

[8] = test system: Clostridium perfringens Type A; format: in vivo, BALB/c mice; settings: for survival of infected mice: 1 h after C. perfringens challenge

`Nc1nnc(Sc2ncc([N+](=O)[O-])s2)s1` [halicin] showed an MIC (Salmonella (CVCC 3377)) of 8 µg/mL (≈ 30.6 µM), an MIC [1] of 8 µg/mL (≈ 30.6 µM) and an MIC ([2]; R. anatipestife (ATCC 11845), second listing) of 8 µg/mL (≈ 30.6 µM). The MIC ([2]; R. anatipestifer (ATCC 11845), first listing) was 4 µg/mL (≈ 15.3 µM), the MIC [3] was 8 µg/mL (≈ 30.6 µM) and the MIC (S. aureus (ATCC 29213) [4]) was 8 µg/mL (≈ 30.6 µM). For the same compound, the MIC (E. faecalis (ATCC 29212)) was 4 µg/mL (≈ 15.3 µM), the MIC (MRSA (ATCC 43300)) was 8 µg/mL (≈ 30.6 µM) and the MIC (MRSA (BNCC 337371)) was 8 µg/mL (≈ 30.6 µM). The “MIC against other bacteria” value [5] was “less than 8 μg/mL”, the “growth in growth kinetics curve assay” value [6] was “completely inhibited” and the “growth in growth kinetics curve assay” value (S. aureus (ATCC 29213) [7]; 1 × MIC) was “started to grow rapidly after 16 h”. The “growth in growth kinetics curve assay” value (S. aureus (ATCC 29213) [7]; 4 × MIC, after 20 h) was “still proliferated significantly”, the “type of antibacterial action” value (S. aureus (ATCC 29213) [7]; against S. aureus) was “bacteriostatic rather than a bactericidal agent” and the “Ames test bacterial counts” value (TA100; TA100, +S9, 5.6 μg/plate) was 171 ± 11.3. The “Ames test bacterial counts” value (TA100; TA100, +S9, 11.2 μg/plate) was 152 ± 12.7, the “Ames test bacterial counts” value (TA100; TA100, +S9, 22.5 μg/plate) was 0 ± 0 and the “Ames test bacterial counts” value (TA100; TA100, +S9, 45 μg/plate) was 0 ± 0. For the same compound, the “Ames test bacterial counts” value (TA100; TA100, -S9, 5.6 μg/plate) was 121 ± 9.9, the “Ames test bacterial counts” value (TA100; TA100, -S9, 11.2 μg/plate) was 0 ± 0 and the “Ames test bacterial counts” value (TA100; TA100, -S9, 22.5 μg/plate) was 0 ± 0. The “Ames test bacterial counts” value (TA100; TA100, -S9, 45 μg/plate) was 0 ± 0, the “Ames test bacterial counts” value (TA97a; +S9, 5.6 μg/plate) was 145 ± 5.7 and the “Ames test bacterial counts” value (TA97a; +S9, 11.2 μg/plate) was 151 ± 11.3. For the same compound, the “Ames test bacterial counts” value (TA97a; +S9, 22.5 μg/plate) was 31 ± 8.5, the “Ames test bacterial counts” value (TA97a; +S9, 45 μg/plate) was 0 ± 0 and the “Ames test bacterial counts” value (TA97a; -S9, 5.6 μg/plate) was 82 ± 14.1. For the same compound, the “Ames test bacterial counts” value (TA97a; -S9, 11.2 μg/plate) was 115 ± 8.5, the “Ames test bacterial counts” value (TA97a; -S9, 22.5 μg/plate) was 0 ± 0 and the “Ames test bacterial counts” value (TA97a; -S9, 45 μg/plate) was 0 ± 0. The “Ames test bacterial counts” value (TA98; TA98, +S9, 5.6 μg/plate) was 30 ± 12.7, the “Ames test bacterial counts” value (TA98; TA98, +S9, 11.2 μg/plate) was 43 ± 8.5 and the “Ames test bacterial counts” value (TA98; TA98, +S9, 22.5 μg/plate) was 53 ± 7.1. For the same compound, the “Ames test bacterial counts” value (TA98; TA98, +S9, 45 μg/plate) was 0 ± 0, the “Ames test bacterial counts” value (TA98; TA98, -S9, 5.6 μg/plate) was 27 ± 2.8 and the “Ames test bacterial counts” value (TA98; TA98, -S9, 11.2 μg/plate) was 61 ± 14.1. The “Ames test bacterial counts” value (TA98; TA98, -S9, 22.5 μg/plate) was 55 ± 5.7, the “Ames test bacterial counts” value (TA98; TA98, -S9, 45 μg/plate) was 0 ± 0 and the “Ames test bacterial counts” value (WP2uvApKM101; WP2uvApKM101, +S9, 5.6 μg/plate) was 183 ± 15.6. The “Ames test bacterial counts” value (WP2uvApKM101; WP2uvApKM101, +S9, 11.2 μg/plate) was 168 ± 19.8, the “Ames test bacterial counts” value (WP2uvApKM101; WP2uvApKM101, +S9, 22.5 μg/plate) was 12 ± 5.7 and the “Ames test bacterial counts” value (WP2uvApKM101; WP2uvApKM101, +S9, 45 μg/plate) was 0 ± 0. For the same compound, the “Ames test bacterial counts” value (WP2uvApKM101; WP2uvApKM101, -S9, 5.6 μg/plate) was 169 ± 15.6, the “Ames test bacterial counts” value (WP2uvApKM101; WP2uvApKM101, -S9, 11.2 μg/plate) was 135 ± 22.6 and the “Ames test bacterial counts” value (WP2uvApKM101; WP2uvApKM101, -S9, 22.5 μg/plate) was 75 ± 8.5. For the same compound, the “Ames test bacterial counts” value (WP2uvApKM101; WP2uvApKM101, -S9, 45 μg/plate) was 0 ± 0, the “survival of infected mice” value ([8]; 5 mg/kg halicin) was “more than 80%” and the “survival of infected mice” value ([8]; 10 mg/kg halicin) was “no deaths occurred; also recorded: All mice in the 10 mg/kg halicin group survived”. The “therapeutic effect in infected mice” value ([8]; dose of 5 mg/kg) was “good therapeutic effects”.
